The test system of series [1] is mammary carcinoma MDAMB-231. Kind of series: MTT test on mammary carcinoma MDAMB-231 cell line. It is filed as cell-based. To be noted: Homo sapiens, MDA-MB-231. The source says: (§1) Cellular vitality tests have been performed by using the derivatives of Formulas VII, I and III on due ovary carcinoma lines (SKOV-3 and A2774), two mammary carcinoma lines (MCF-7 and MDAMB-231) and two pulmonary carcinoma lines (H727 and A549). The compounds of Formulas I and III have further been tested in liposomal nanoparticles (NP) in comparison with the pulmonary carcinoma lines H727. The pulmonary carcinoma lines have been used also as target for determining the genotoxicity of the compounds of Formulas I and III, for determining the type of cellular death, through flow cytometry analyses, and for a preliminary analysis in vivo with toxicity determination and pharmacy-kinetics estimation (compound from Formula I).
(§2) In particular, for both tumor cellular lines, the derivatives of Formulas I and III have EC50 of about 20 μM, while the derivative of Formula VII has a EC50 included between 20 and 30 μM, as shown in the graphs in FIG. 3 and FIG. 4.
In general terms: Formazan colour is commonly taken as a measure of viable cells.

Series [2] deals with DNA of pulmonary carcinoma A549 cells. Kind of series: Receptor-DNA adducts through 32P marking. It is filed as cell-based. To be noted: A549, butanol enrichment.
For the next series, the system named is mammary carcinoma MCF-7. Kind of series: MTT test on mammary carcinoma MCF-7 cell line. It counts as cell-based. To be noted: Homo sapiens, MCF7.
Source text: as §1, §2

Another series relates to ovary carcinoma SKOV-3. The series can be described thus: MTT test on ovary carcinoma SKOV-3 cell line. It counts as cell-based. Conditions: for EC50: Homo sapiens, SK-OV-3, SKOV-3; for activity: SKOV-3, fragments.
Source text: as §1
(§3) The macrocycles of Formulas VII, I and III have been used in MTT tests on cellular lines derive from ovary carcinoma. […] The selectivity shown by the derivative of Formula I compared with a specific cellular line surely needs to be further analyzed as regards its operating mechanism.
(§4) A series of MTT tests have been performed by using the derivatives of Formulas VI, VIII, II and IV (such compounds can be considered as possible fragments of the macrocycles of Formulas V, VII, I and III). […] The results of these MTT tests show how the cytotoxic activity of the compounds of the invention has to be ascribed to the complete structure of the macrocycle having the acetyl function and not to any isolated component thereof.

The next series concerns pulmonary carcinoma H727. The series can be described thus: MTT test on pulmonary carcinoma H727 cell line. It is filed as cell-based. Conditions: H727, different concentrations, as such or in lipid nanoparticles (NP).
Source text: as §1
(§5) The derivatives of Formulas I and III have been used for a series of MTT tests at different concentrations, as such or from a formulation of lipid nanoparticles (NP), using cellular lines deriving from pulmonary carcinoma H727.

For series [3], the system named is pulmonary carcinoma A549. The series can be described thus: COMET test (DNA fragmentation). It counts as cell-based. Conditions: concentrations from 5 to 50 μM, with respect to standard K. The text has this: These latter data are mainly affected by the fact that this technique is not able to detect dead cells, and, in case of compounds of Formulas I and III, such percentage, as previously seen, is relevant.

For series [4], the system named is pulmonary carcinoma A549. The series can be described thus: Flow cytometry analysis of type of cellular death. It counts as cell-based.
Source text: as §1
The cellular lines A549 treated with the compound of Formula I show 38.80% of apoptosis (9.05% early apoptosis and 29.75% late apoptosis) compared with a 9.30% of necrosis. The same cells treated with the compound of Formula III show 23.45% of total apoptosis (10.25% early apoptosis and 13.20% late apoptosis) against 4.75% of necrosis.

For series [5], the system named is pulmonary carcinoma A549. Kind of series: MTT test on pulmonary carcinoma A549 cell line. It is filed as cell-based. Conditions: for efficacy compared with Endoxan (cyclophosphamide): A549, various concentrations; for efficacy: A549.
Source text: as §1, §5, §4

For a further series, the system named is ovary carcinoma A2774. Kind of series: MTT test on ovary carcinoma A2774 cell line. It is filed as cell-based.
Source text: as §1, §3

The conditions of series [6]: mouse, in vivo. The source says: (§6) A preliminary analysis for the toxicity in vivo has been performed by using the compound of Formula I on NJ mice. Due to the particularly hydrophobic nature of such derivative, after various attempts to determine the best solvent mixture, which is non-toxic for the animal, but which contains an adequate concentration of receptor, it has been decided to administer the compound using a mixture containing 10% of DMSO in olive oil. […] After 5 days, the mouse has been sacrificed and, through a HPLC/Mass analysis, the distribution of the compound inside the different compartments has been determined. The different tissues/organs (back sub-skin, spleen, omentum, heart, liver, brain, lung and kidney) have been removed, homogenized and analyzed. A high concentration of the compound of Formula I (determined through the computation of the peak area at m/z 546.31), corresponding to the analyzed compound [M-H]^−), has been observed in the injection site (Area 532.875) and in the spleen (Area 196.233), but the biggest amount has been discovered in the omentum (Area 1.237.999). Lower concentrations have been discovered in the kidney (Area 120.117), in the lung (Area 32.514) and in the heart (Area 29.443). A minimum amount of the compound has been detected in the liver (Area 11.293).

The test system of a further series is NJ mice. To be noted: in vivo.
Source text: as §6

The target in a further series is extrogen receptor GPER (Homo sapiens, UniProt Q99527). Conditions: literature; cited from earlier work.
Sequence of extrogen receptor GPER (Q99527 whole entry): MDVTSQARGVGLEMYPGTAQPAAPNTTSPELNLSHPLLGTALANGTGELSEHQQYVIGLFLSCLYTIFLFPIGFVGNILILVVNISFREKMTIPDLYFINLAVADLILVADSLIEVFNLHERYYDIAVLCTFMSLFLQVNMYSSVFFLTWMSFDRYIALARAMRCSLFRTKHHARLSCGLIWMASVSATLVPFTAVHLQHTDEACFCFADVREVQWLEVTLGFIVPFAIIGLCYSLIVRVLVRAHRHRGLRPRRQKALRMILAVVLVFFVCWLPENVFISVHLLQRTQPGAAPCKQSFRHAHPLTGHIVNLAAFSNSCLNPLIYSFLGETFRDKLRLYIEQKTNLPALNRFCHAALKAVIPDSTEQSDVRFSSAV
The conditions of series [7]: literature; cited from earlier work.

These results are taken from patent publication US10799480B2, “Calixpyrrole-based antitumor compounds” (Giam Pharma International sarl, priority 2016, dated 2020).

Entries after “also recorded” stand apart in the source; their conditions may differ.

Turning to `CC(=O)Nc1cccc(C2(C)c3ccc([nH]3)C(C)(C)c3ccc([nH]3)C(C)(C)c3ccc([nH]3)C(C)(C)c3ccc2[nH]3)c1` [Formula III], in series [1], the EC50 was ~20 µM. Also, the “adducts with DNA / genotoxicity” value in series [2] is listed as “adducts with DNA have been identified; also recorded: higher genotoxicity of the compound of Formula III with respect to the derivative of Formula I”. The EC50 in the series on mammary carcinoma MCF-7 was ~20 µM. Also, the EC50 in the series on ovary carcinoma SKOV-3 was ~15 µM. The “efficacy (cellular vitality)” value in the series with pulmonary carcinoma H727 is “maximum efficacy already at the lowest doses being used (5 μM)”. Further, in the series with pulmonary carcinoma A549 [3], the “fragmentation of DNA” value is “have not given any fragmentation of DNA”. In addition, in the series with pulmonary carcinoma A549 [4], the early apoptosis was 10.25%, the late apoptosis came to 13.20%, the main death mechanism entry is “apoptosis is the main death mechanism” and the necrosis is on record as 4.75%. This molecule yielded a total apoptosis with pulmonary carcinoma A549 [4] of 23.45%. In addition, the “efficacy compared with Endoxan (cyclophosphamide)” value in the series with pulmonary carcinoma A549 [5] is “even more efficient than the known chemotherapeutic drug Endoxan”. Besides, the EC50 in the series on ovary carcinoma A2774 was ~15 µM.

On to `CC(=O)Nc1ccc(C(C)(c2ccc[nH]2)c2ccc[nH]2)cc1` [Formula II], for which, in the series on pulmonary carcinoma A549 [5], the efficacy entry is “have not shown any activity”.

As to `CC(=O)Nc1cccc(C(C)(c2ccc[nH]2)c2ccc[nH]2)c1` [Formula IV], in the series on pulmonary carcinoma A549 [5], the efficacy entry is reported as “have not shown any activity”.

Turning to `CC(=O)Nc1ccc(C2(C)c3ccc([nH]3)C(C)(C)c3ccc([nH]3)C(C)(C)c3ccc([nH]3)C(C)(C)c3ccc2[nH]3)cc1` [Formula I], the EC50 in [1] was ~20 µM. In addition, the “adducts with DNA / genotoxicity” value in series [2] was “adducts with DNA have been identified”. In series [6] (NJ, 5 days), the “peak area in the brain” value came out at 7.735, the “peak area in the heart” value is reported as 29.443, the “peak area in the injection site” value turned out to be 532.875 and the “peak area in the kidney” value was determined as 120.117. In series [6] (NJ, 5 days), the “peak area in the liver” value was determined as 11.293, the “peak area in the lung” value is recorded as 32.514 and the “peak area in the spleen” value worked out at 196.233. Further, in series [6], the “passing the hematic-encephalic barrier” value is recorded as “actually capable of passing the hematic-encephalic barrier”. Besides, the “effects on the mouse” value in the series with NJ mice (sc, 5 mg/kg) was “without discovering particular effects on the mouse”. For the same molecule, in the series with NJ mice (mouse, ip), the “effect on the animal” value is reported as “has not show any apparent effect on the animal”. The EC50 in the series with mammary carcinoma MCF-7 was ~20 µM. Moreover, the EC50 in the series on ovary carcinoma SKOV-3 is 1 to 5 µM. Moreover, the “efficacy (cellular vitality)” value with pulmonary carcinoma H727 is on record as “maximum efficacy already at the lowest doses being used (5 μM)”. Also, the “fragmentation of DNA” value in the series on pulmonary carcinoma A549 [3] is reported as “have not given any fragmentation of DNA”. In the series with pulmonary carcinoma A549 [4], the early apoptosis was found to be 9.05%, the late apoptosis is recorded as 29.75%, the main death mechanism result was “apoptosis is the main death mechanism” and the necrosis was found to be 9.30%. In the series with pulmonary carcinoma A549 [4], the total apoptosis is on record as 38.80%. For the same molecule, in the series on pulmonary carcinoma A549 [5], the “efficacy compared with Endoxan (cyclophosphamide)” value is “even more efficient than the known chemotherapeutic drug Endoxan”. The concentration giving a half-maximal response (EC50) with ovary carcinoma A2774 is ~15 µM.

Regarding `CC(c1cccc(N)c1)(c1ccc[nH]1)c1ccc[nH]1` [Formula VIII], the activity entry in the series on ovary carcinoma SKOV-3 was “inefficient”.

As for `CC1(C)c2ccc([nH]2)C(C)(C)c2ccc([nH]2)C(C)(c2cccc(N)c2)c2ccc([nH]2)C(C)(C)c2ccc1[nH]2` [Formula VII], the results for the EC50 (in series [1]; in the series on mammary carcinoma MCF-7; in the series on ovary carcinoma SKOV-3) were 20 to 30 µM, 20 to 30 µM and ~15 µM, respectively. For the same molecule, the “fragmentation of DNA” value with pulmonary carcinoma A549 [3] is recorded as “a fragmentation is observed”. The efficacy entry in the series with pulmonary carcinoma A549 [5] is “seem not show any efficacy”. The activity entry in the series with ovary carcinoma A2774 is reported as “has not shown any activity”.

For `CC(c1ccc(N)cc1)(c1ccc[nH]1)c1ccc[nH]1` [Formula VI], the activity entry in the series on ovary carcinoma SKOV-3 was “inefficient”.

Regarding `CC1(C)c2ccc([nH]2)C(C)(C)c2ccc([nH]2)C(C)(c2ccc(N)cc2)c2ccc([nH]2)C(C)(C)c2ccc1[nH]2` [Formula V], in the series with pulmonary carcinoma A549 [3], the “fragmentation of DNA” value was “a fragmentation is observed”. In addition, in the series with pulmonary carcinoma A549 [5], the efficacy entry is listed as “seem not show any efficacy”.

For the molecule `CC1(C)c2ccc([nH]2)C(C)(C)c2ccc([nH]2)C(C)(C)c2ccc([nH]2)C(C)(C)c2ccc1[nH]2` [meso-octametil-calix[4]pyrrole], the GPER inhibition result at extrogen receptor GPER is reported as “selective inhibitor of the extrogen receptor GPER”. Also, in series [7], the cytotoxicity result was “has not appeared as cytotoxic”.

The term EC50 denotes the midpoint of the concentration-response curve. A low value points to greater potency.
